Like-named read-outs stand apart in the source and are kept apart here.
Legend:
[1] = target: CDK7/cyclinH/MAT1 trimeric complex (Homo sapiens, UniProt P50613); assay: In vitro CDK7 assay, potency of irreversible covalent inhibitors (kinact/KI), coupled PK/LDH ADP readout at 340 nm; conditions: for CDK7 (20 nM enz.) (kinact, s^−1) / CDK7 (20 nM enz.) (kinact/KI, M^−1*s^−1) / Ki / CDK7 (20 nM enz.) (kobs/[I], M^−1*s^−1): 20 nM enzyme; for Ki: CDK7 (20 nM enz.) (KI, μM); for kinact: read-out: CDK7 (20 nM enz.) (kinact, s^−1), 20 nM enzyme
Sequence of CDK7/cyclinH/MAT1 trimeric complex (P50613 whole entry): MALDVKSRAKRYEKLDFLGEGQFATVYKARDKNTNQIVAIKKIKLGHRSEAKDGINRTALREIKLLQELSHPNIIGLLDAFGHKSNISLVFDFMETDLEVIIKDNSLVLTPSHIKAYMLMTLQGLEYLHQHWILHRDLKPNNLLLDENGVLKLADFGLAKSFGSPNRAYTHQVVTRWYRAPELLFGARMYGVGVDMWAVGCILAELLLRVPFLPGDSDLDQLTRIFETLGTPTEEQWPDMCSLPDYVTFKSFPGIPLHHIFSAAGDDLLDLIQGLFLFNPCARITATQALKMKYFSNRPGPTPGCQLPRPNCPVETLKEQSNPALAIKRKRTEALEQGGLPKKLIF
Sequence of CDK7/cyclinH/MAT1 trimeric complex (P51946 whole entry partner): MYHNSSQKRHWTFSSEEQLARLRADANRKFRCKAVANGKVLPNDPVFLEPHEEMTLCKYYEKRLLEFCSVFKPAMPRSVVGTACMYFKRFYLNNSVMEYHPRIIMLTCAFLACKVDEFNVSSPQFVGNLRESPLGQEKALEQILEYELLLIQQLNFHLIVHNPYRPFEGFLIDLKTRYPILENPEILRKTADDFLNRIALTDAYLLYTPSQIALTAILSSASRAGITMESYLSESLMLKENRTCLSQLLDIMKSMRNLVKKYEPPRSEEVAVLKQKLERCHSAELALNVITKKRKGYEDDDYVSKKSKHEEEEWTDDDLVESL
Sequence of CDK7/cyclinH/MAT1 trimeric complex (P51948 whole entry partner): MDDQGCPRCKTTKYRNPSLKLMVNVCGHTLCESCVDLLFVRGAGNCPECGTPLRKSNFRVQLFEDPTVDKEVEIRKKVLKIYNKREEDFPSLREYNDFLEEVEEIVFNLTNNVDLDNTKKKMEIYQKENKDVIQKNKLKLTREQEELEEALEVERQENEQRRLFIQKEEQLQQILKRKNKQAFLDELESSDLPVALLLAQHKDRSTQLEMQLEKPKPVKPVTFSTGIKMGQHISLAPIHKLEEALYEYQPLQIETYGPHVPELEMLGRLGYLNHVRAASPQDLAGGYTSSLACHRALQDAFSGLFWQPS

[2] = test system: RNA Polymerase II Serine 5 phosphorylation in A549 cells overexpressing CDK7-mutant (C312S); assay: Imaging-based cellular RNA PolII Ser5 phosphorylation assay in A549 cells overexpressing CDK7-mutant (C312S); assay type: cell-based, human; conditions: RNA PolII Ser5 phosphorylation, averaged over all measurements; for CDK7_A549 mutant hCDK7(pIC50): A549 cells overexpressing CDK7-mutant (C312S); for IC50: Homo sapiens, A549, A549 cells overexpressing CDK7-mutant (C312S), read-out: CDK7_A549 mutant hCDK7(pIC50) (converted)
Outline: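 A549 cells overexpressing CDK7 C312S (with endogenous wild-type CDK7) were treated with compound for 3 h at 37 °C in 1% FBS medium. Phospho-Rpb1 CTD Ser5 was immunostained after fixation and imaged. IC50 came from curve fit of % control, normalised to DMSO and 10 μM reference-compound controls.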

[3] = test system: RNA Polymerase II Serine 5 phosphorylation (Rpb1 CTD, downstream substrate of CDK7) in A549 cells; assay: Imaging-based cellular RNA PolII Ser5 phosphorylation assay in A549 cells; assay type: cell-based, human; conditions: wild-type CDK7, RNA PolII Ser5 phosphorylation, averaged over all measurements; for CDK7_A549 Wild-type CDK7 (pIC50): A549 cells; for IC50: Homo sapiens, A549, A549 cells, read-out: CDK7_A549 Wild-type CDK7 (pIC50) (converted)
Outline: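 A549 cells, seeded 1000/well in DMEM with 1% FBS and cultured 20 h, were treated with compound for 3 h at 37 °C. Ser5-phospho-Rpb1 CTD detected by immunofluorescence imaging after fixation and methanol permeabilization; IC50 from curve fit normalized to DMSO and 10 μM reference-compound controls.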

[4] = read-out: CDK7 (20 nM enz.) (kobs/[I], M^−1*s^−1), 20 nM enzyme
[5] = read-out: CDK7 (20 nM enz.) (kinact/KI, M^−1*s^−1), 20 nM enzyme

| SMILES | CDK7 (20 nM enz.) (kinact, s^−1) [1] [s⁻¹] | CDK7 (20 nM enz.) (kinact/KI, M^−1*s^−1) [1] [M⁻¹ s⁻¹] | Ki [1] [µM] | CDK7_A549 mutant hCDK7(pIC50) [2] | CDK7_A549 Wild-type CDK7 (pIC50) [3] | CDK7 (20 nM enz.) (kobs/[I], M^−1*s^−1) [1] [M⁻¹ s⁻¹] | kinact/KI [1, 4] [M⁻¹ s⁻¹] | IC50 [2] [nM] | IC50 [3] [nM] | kinact [1] [s⁻¹] | kinact/KI [1, 5] [M⁻¹ s⁻¹] |
| --- | --- | --- | --- | --- | --- | --- | --- | --- | --- | --- | --- |
| C=CC(=O)N1CC(N2CCC(c3cc4c(c(C)n3)OCc3c(-c5cnn(C)c5)ccnc3N4)CC2)C1 [Compound 314] | 3.945e-05 | 602.565 | 0.0655 | <5 | 7.14 | – | – | – | – | – | – |
| C=CC(=O)N1CC(N2CC(c3cc4c(c(C(F)(F)F)n3)OCc3c(N5CCOCC5)ccnc3N4)C2)C1 [Compound 315] | – | – | – | 5.3 | 7.25 | 894.649 | – | – | – | – | – |
| C=CC(=O)N1CCC(N2CC(c3cc4c(c(C)n3)OCc3c(-c5cnn(C)c5)ccnc3N4)C2)CC1 [Compound 316] | 2.255e-05 | 251.248 | 0.0898 | 5.32 | 6.97 | – | – | – | – | – | – |
| C=CC(=O)N1CC(N2CC(c3cc4c(c(C5CC5)n3)OCc3c(N5CCOCC5)ccnc3N4)C2)C1 [Compound 317] | – | – | – | – | – | – | 1060 | > 10000 | 60.3 | – | – |
| CC#CC(=O)N1CC(N2CC(c3cc4c(c(C5CC5)n3)OCc3c(N5CCOCC5)ccnc3N4)C2)C1 [Compound 318] | – | – | 0.0441 | – | – | – | – | > 10000 | 324 | 6.19e-05 | 1400 |
| C=CC(=O)N1CC(N2CCC(c3cc4c(c(C#N)n3)OCc3c(C5CCOCC5)ccnc3N4)CC2)C1 [Compound 322] | – | – | – | – | – | – | 740 | 9550 | 79.4 | – | – |
| CC#CC(=O)N1CCC(N2CCC(c3cc4c(c(C)n3)OCc3c(N5CCOCC5)ccnc3N4)CC2)CC1 [Compound 325] | – | – | – | – | – | – | 1280 | 4170 | < 9.77 | – | – |
| CC#CC(=O)N1CC(n2cc(-c3cc(C)c4c(c3)Nc3nccc(N5CCOCC5)c3CO4)cn2)C1 [Compound 333] | – | – | 0.11 | – | – | – | – | 6760 | 178 | 2.12e-05 | 193 |
| CC#CC(=O)N1CCC(N2CC(c3cc4c(c(C5CC5)n3)OCc3c(N5CCOCC5)ccnc3N4)C2)CC1 [Compound 335] | – | – | 0.0383 | – | – | – | – | 3630 | 55 | 1.86e-05 | 486 |
| C=CC(=O)N1CCC(N2CC(c3cc4c(c(C5CC5)n3)OCc3c(N5CCOCC5)ccnc3N4)C2)CC1 [Compound 336] | 1.295e-05 | 229.663 | 0.0564 | – | – | – | – | 1320 | 49 | – | – |
| C=CC(=O)N1CCC(N2CC(c3cc(C)c4c(c3)Nc3nccc(-c5cnn(C)c5)c3CO4)C2)CC1 [Compound 338] | – | 299.026 | – | 5.52 | 7.25 | – | – | – | – | 4.86e-05 | – |
| C=CC(=O)N1CC(N2CC(c3cc4c(c(C#N)n3)OCc3c(C5CCOCC5)ccnc3N4)C2)C1 [Compound 339] | – | – | 0.0746 | – | – | – | – | > 10000 | 145 | 7.81e-05 | 1050 |
| CC#CC(=O)N1CCC(N2CC(c3cc4c(c(C5CC5)n3)OCc3c(N5CCOCC5)ccnc3N4)C2)CC1 [Compound 340] | 2.465e-05 | 507.473 | 0.0486 | 5.43 | 7.37 | – | – | – | – | – | – |
| C=CC(=O)N1CCC(N2CC(c3cc4c(c(C5CC5)n3)OCc3c(N5CCOCC5)ccnc3N4)C2)CC1 [Compound 341] | 2.9e-05 | 655.075 | 0.0443 | 5.64 | 7.35 | – | – | – | – | – | – |
| C=CC(=O)N1CC(N2CCC(c3cc(C#N)c4c(c3)Nc3nccc(N5CCOCC5)c3C(C)O4)CC2)C1 (stereo not drawn) [Compound 342] | – | – | – | 5.18 | 7.85 | – | 633 | – | – | – | – |
| CC#CC(=O)N1CCC(N2CC(c3cc4c(c(CCC)n3)OCc3c(N5CCOCC5)ccnc3N4)C2)CC1 [Compound 347] | – | – | 0.036 | – | – | – | – | 5130 | 47.9 | 2.84e-05 | 791 |
| C=CC(=O)N1CCC(N2CC(c3cc4c(c(CCC)n3)OCc3c(N5CCOCC5)ccnc3N4)C2)CC1 [Compound 348] | – | – | 0.0543 | – | – | – | – | 3090 | 47.9 | 5.99e-05 | 1100 |
| C=C(C(=O)N1CCC(N2CC(c3cc4c(c(C)n3)OCc3c(-c5cnn(C)c5)ccnc3N4)C2)CC1)n1cccn1 [Compound 349] | – | – | 0.0563 | – | – | – | – | 8320 | 97.7 | 3.25e-05 | 578 |
| C=CC(=O)N1CC(N2CC(c3cc4c(c(CCC)n3)OCc3c(N5CCOCC5)ccnc3N4)C2)C1 [Compound 350] | – | – | 0.025 | – | – | – | – | 10000 | 81.3 | 4.4e-05 | 1760 |
| C=CC(=O)N1CC(N2CCC(c3cc(C#N)c4c(c3)Nc3nccc(N5CCOCC5)c3C(C)O4)CC2)C1 (stereo not drawn) [Compound 352] | – | – | 0.055 | 5.51 | 7.52 | – | – | – | – | 5.53e-05 | 1010 |
| C=CC(=O)N1CC(N2CC(c3cc4c(c(C(F)(F)F)n3)OCc3c(N5CCOCC5)ccnc3N4)C2)C1 [Compound 357] | – | – | – | 5.11 | 7.24 | 2368.08 | – | – | – | – | – |
| C=CC(=O)N1CCC(N2CC(c3cc4c(c(C(F)(F)F)n3)OCc3c(N5CCOCC5)ccnc3N4)C2)CC1 [Compound 359] | – | 994.882 | 0.028 | – | – | – | – | 2820 | 102 | 2.79e-05 | – |

More lines, now with the values ahead:

| CDK7 (20 nM enz.) (kinact, s^−1) [1] [s⁻¹] | CDK7 (20 nM enz.) (kinact/KI, M^−1*s^−1) [1] [M⁻¹ s⁻¹] | Ki [1] [µM] | CDK7_A549 mutant hCDK7(pIC50) [2] | CDK7_A549 Wild-type CDK7 (pIC50) [3] | CDK7 (20 nM enz.) (kobs/[I], M^−1*s^−1) [1] [M⁻¹ s⁻¹] | kinact/KI [1, 4] [M⁻¹ s⁻¹] | IC50 [2] [nM] | IC50 [3] [nM] | kinact [1] [s⁻¹] | kinact/KI [1, 5] [M⁻¹ s⁻¹] | SMILES |
| --- | --- | --- | --- | --- | --- | --- | --- | --- | --- | --- | --- |
| – | – | – | – | – | – | 464 | > 10000 | 162 | – | – | CC#CC(=O)N1CCC(N2CC(c3cc4c(c(-c5ncc[nH]5)n3)OCc3c(N5CCOCC5)ccnc3N4)C2)CC1 [Compound 364] |
| – | – | – | – | – | – | 339 | 10700 | 209 | – | – | C=CC(=O)N1CCC(N2CC(c3cc4c(c(-c5ncc[nH]5)n3)OCc3c(N5CCOCC5)ccnc3N4)C2)CC1 [Compound 366] |
| – | – | 0.0482 | – | – | – | – | 10500 | 75.9 | 3.37e-05 | 698 | C=CC(=O)N1CC(N2CCC(c3cc4c(c(C)n3)OCc3c(N5CCOCC5)ccnc3N4)N(C)CC2)C1 (stereo not drawn) [Compound 367] |
| – | – | 0.103 | – | – | – | – | > 10000 | 191 | 4.43e-05 | 429 | CC#CC(=O)N1CC(N2CC(c3cc4c(c(CCC)n3)OCc3c(N5CCOCC5)ccnc3N4)C2)C1 [Compound 368] |
| – | – | 0.113 | – | – | – | – | > 10000 | 269 | 1.66e-05 | 147 | CC#CC(=O)N1CC(N2CCC(c3cc4c(c(C)n3)OCc3c(N5CCOCC5)ccnc3N4)N(C)CC2)C1 (stereo not drawn) [Compound 373] |
| – | – | 0.0333 | – | – | – | – | 7080 | 224 | 1.58e-05 | 475 | C=CC(=O)N1CCC(n2cc(-c3cc(C)c4c(c3)Nc3nccc(N5CCOCC5)c3CO4)cn2)CC1 [Compound 379] |
| – | – | 0.241 | – | – | – | – | > 10000 | 162 | 4.27e-05 | 177 | CC#CC(=O)N1CC(n2cc(-c3cc4c(c(C)n3)OC(C)c3c(N5CCOCC5)ccnc3N4)cn2)C1 (stereo not drawn) [Compound 380] |
| – | – | 3.26 | – | – | – | – | > 10000 | 204 | 4.7e-05 | 14.4 | C=CC(=O)N1CCC(N2CCN(c3ccc4c(c3)Nc3nccc(N5CCOCC5)c3CO4)CC2)CC1 [Compound 382] |
| – | – | 0.03 | – | – | – | – | 5130 | 355 | 7.49e-06 | 249 | C=CC(=O)N1CCC(N2CC(c3cc4c(c(C#N)n3)OCc3c(N5CCOCC5)ccnc3N4)C2)CC1 [Compound 384] |
| – | – | 0.0211 | – | – | – | – | 4270 | 158 | 1.2e-05 | 570 | CC#CC(=O)N1CCC(N2CC(c3cc4c(c(C#N)n3)OCc3c(N5CCOCC5)ccnc3N4)C2)CC1 [Compound 385] |
| – | – | 0.0199 | – | – | – | – | > 10000 | 141 | 2.13e-05 | 1070 | C=CC(=O)N1CCC(N2CCN(c3cc4c(c(C)n3)OCc3c(N5CCOCC5)ccnc3N4)CC2)CC1 [Compound 389] |
| – | – | 0.0205 | – | – | – | – | > 10000 | ~61.7 | 2.25e-05 | 1100 | C=CC(=O)N1CCN(C2CCN(c3cc4c(c(C)n3)OCc3c(N5CCOCC5)ccnc3N4)CC2)CC1 [Compound 391] |
